According to patent publication US20250034139A1, “AMINE COMPOUNDS HAVING ANTI-INFLAMMATORY, ANTIFUNGAL, ANTIPARASITIC, AND ANTICANCER ACTIVITY” (PHARMA CINQ, LLC, priority 2013, published 2025):
Marks after values point to notes of the source that are not given here.

How the values were obtained:
[1] = system: HCT-116 colon adenocarcinoma cells; experiment: Example Q: HCT-116 liver metastases of human colorectal cancer in nude mice; format: in vivo; details: 240 μmol/kg/day oral, 28 days
Excerpt: A major cause of morbidity and mortality in patients with colorectal cancer is metastasis of the tumor into the liver; colorectal cancer can often be successfully resected from the primary site, but metastases to the liver are much less accessible to surgical treatment. A mouse model of colorectal cancer metastasis to the liver has been established, using HCT-116 colon adenocarcinoma cells injected into the spleen of athymic (nude) mice. The HCT-116 cancer cells spontaneously spread from the spleen into the liver via the circulation, and they form tumors in the liver (Ishizu, K., Sunose, N., Yamazaki, K., Tsuruo, T., Sadahiro, S., Makuuchi, H., and Yamori, T. Development and Characterization of a Model of Liver Metastasis Using Human Colon Cancer HCT-116. Biol. Pharm. Bull. 2007, 30(9):1779-1783).
Mice (female Hsd:athymic nude-Foxn1^nu) were anesthetized with xylazine/ketamine intraperitoneal injection, followed by incision approximately 10 mm on the left subcostal region (area disinfected with ethanol) to expose the peritoneum. The peritoneum was opened for about 8 mm near the spleen, and 2.5×10^6 cells in 50 μL PBS were injected into the spleen using a 30G needle. The spleen was repositioned, and the surgical area was closed using sutures and clips.
The day after receiving cells, mice were randomized into groups of five based upon body weight to provide groups with approximately equivalent mean body weight. Mice received a single, daily oral dose of test article or vehicle (1% hydroxypropylmethylcellulose) beginning 48 hours following cell injection into the spleen.
At study termination 28 days after HCT-116 cell injection, body weights were recorded, and spleens and livers were removed, weighed and fixed in 10% formalin. Livers were sectioned and stained; the relative areas of normal and tumor tissue were quantified in histology sections with quantitative planimetry software.

[2] = system: Hep3B hepatocellular carcinoma cell line; details: for Tumor Weight (g) Mean ± SEM: Hep3B in liver of nude mice, day 35, oral daily, sorafenib 30 mg/kg/day alone, 20 mg/kg/day in combination, AC 180, AK and AB 360 μmol/kg/day; for Body Weight (g) Mean ± SEM Initial: in vivo; for Complete Regressions: number of mice with no viable tumor at necropsy, doses as Table 35
Excerpt: Hepatocellular carcinoma (HCC) is one of the most common and lethal cancers worldwide, generally developing as a consequence of chronic infection with hepatitis B or C viruses. […] The Hep3B hepatocellular carcinoma cell line is human in origin, contains genetic traces of hepatitis B virus, and can be injected into the livers of athymic immunocompromised mice as a model of primary HCC. […] The test compounds were all administered orally.
The test compounds of the invention were suspended in 1% hydroxypropylmethylcellulose (HPMC) using a sonicator equipped with a microtip to minimize particle size and maximize uniformity of the suspension. Sorafenib was dissolved in a 1:1 mixture of Cremophor EL and ethanol by heating to 60° C. for 1 minute and then sonicating for 10 minutes to fully suspend. Female nude mice (Hsd:athymic nude-Foxn1^nu) weighing approximately 25 g were anesthetized with ketamine/xylazine, laid on their backs, and a 1-cm transverse incision made through the skin and peritoneum of the left upper abdomen. The mediant lobe of the liver was exposed by applying gentle pressure on the abdomen. 1.5-2×10^6 Hep3B cells in a 20 μL volume of matrigel:EMEM serum free (1:1) were slowly implanted by subserosal injection into the liver using a 27-gauge needle on a Hamilton syringe. The liver was allowed to slip back into place, and the peritoneum was closed with sutures and wound clips.
Mice were divided into 8 groups of mice each following injection of cells; the vehicle/vehicle group comprised 12 mice and the other groups comprised 8 or 9. Mice began receiving oral test drug treatments 48 hr post cell injection.
The test compounds, sorafenib, and vehicles were administered by oral gavage. Sorafenib or its cremophor-containing vehicle were given in the morning and compounds of the invention or their HPMC vehicle was administered in the afternoon each day; all animals received two gavage treatments of drugs or appropriate vehicles daily.

[3] = system: TPA induced chronic skin inflammation; experiment: Example E: TPA induced chronic skin inflammation mouse model, ear thickness; format: in vivo
Excerpt: Objective: To evaluate the anti-inflammatory properties of compounds of the invention in a 12-O-tetradecanoylphorbol-13-acetate (TPA) induced chronic skin inflammation mouse model.
Topically applied phorbol esters such as TPA induce skin inflammation involving edema, macrophage and T cell infiltration and epidermal hyperplasia (Alford et al., 1992), and this system has been used as an animal model for dermatitis, mimicking aspects of human inflammatory skin disorders. TPA is also known as a tumor promoter, so that agents which inhibit hyperproliferative or angiogenic actions of TPA may inhibit tumor promotion.
Drug formulations: Compound AC was dissolved in isopropyl myristate:propylene glycol (1:1)+0.9% DMSO at the indicated concentrations. TPA was dissolved in acetone:water (99:1). Dexamethasone (0.06%) was dissolved in normal saline.
Mice: HSD-ICR(CD-1R) female mice at 8-10 weeks of age were used in this experiment.
Experimental Design: Mice were placed into six groups of 10 mice each. 20 μL of 0.01% TPA was administered to each ear on days 0, 2, 4, 7, 9, 11, 13, 15, 18, 20, and 22. 20 μL of AC at various concentrations or 20 μL of dexamethasone solution was applied to the ears daily beginning on day 7, after inflammatory changes in ear thickness were established. Ear thickness was measured with calipers every three days.

[4] = system: Vit-D3 activated THP-1 cells; experiment: Example B: viable cell count, AC vs chloroquine, +/- LPS; format: cell-based, Human; details: LPS-stimulated and basal THP-1 cells, 5 hours
Procedure: • 1. Vit-D3 activated THP-1 cells (0.5×10^6 cells in 2 ml) were transferred to the wells of a 24-well dish • 2. Compound AC was added at a concentration of 0.5 μM, 1.0 μM or 5.0 μM • 3. […] LPS from E. coli 0111:B4 (1 ng/ml final concentration) was added to some wells • 5. After 5 hours viable cell count, Acridine Orange (A.O.) uptake and JC-1 mitochondrial loading were determined by fluorescence-activated cell sorting (FACS)
THP-1 cells (p39) treated with 0.1 μM vit-D3 (100 μM) in DMSO] for 3 days were counted, spun down, resuspended in serum-free RPMI (Lonza 12-115F) and transferred to the wells of two 24-well dishes (0.5×10^6 cells in 2 ml). […] Crude-LPS from E. coli 0111:B4 was added to some wells (1 ng/ml final conc) and the plates placed in a 37 C incubator. 1 μl of Baf A1 (50 nM final conc) was added to one well (no LPS) at T=4 hours to serve as a compensation control for Acridine Orange loading. After 5 hours, 500 μl aliquots of cells were transferred to FACS tubes and viable cell counts, A.O. loading and JC-1 accumulation determined by FACS.
The tubes were washed twice in DPBS, resuspended in 500 μl DPBS and acquired on the FACSCalibur.

[5] = HCT-116 liver metastases, nude mice

CCCCCCOc1ccc(CNc2ccnc3ccccc23)cc1 [AA, N-[4-(Hexyloxy)benzyl]quinolin-4-amine]
Final Body Weight Grams [1, 5]: 28.2 ± 1.5 NS Grams | Liver Weight % of Body Weight [1, 5]: 5.3 ± 0.2% | Tumor Area % of Vehicle Group [1, 5]: 1.5% * | Tumor Area % of Total Liver ([1]; HCT-116 liver metastases, nude mice, histology planimetry): 0.2 ± 0.26%

CCCCCCOc1cccc(CNc2ncnc3ccccc23)c1 [AK, N-[3-(Hexyloxy)benzyl]quinazolin-4-amine]
Tumor Weight (g) Mean ± SEM [2]: 1.56 ± 0.39^ g | Body Weight (g) Mean ± SEM Initial [2]: 25.9 ± 0.7 g | Complete Regressions ([2]; day 35): 2 | reduction of tumor size versus vehicle ([2]; single agents, oral, day 35, sorafenib 30 mg/kg/day): numerically but not statistically significant reduction in tumor size versus vehicle

CCCCCCOc1cccc(CNc2ccnc3ccccc23)c1 [Compound AC, N-[3-(Hexyloxy)benzyl]quinolin-4-amine]
Ear thickness (mm) ([3]; day 22, 0.0125 mg/ear daily topical from day 7, TPA-treated mice): 0.362 ± 0.0394 mm | Ear thickness (mm) ([3]; day 22, 0.025 mg/ear daily topical from day 7, TPA-treated mice): 0.390 ± 0.0319 mm | Ear thickness (mm) ([3]; day 22, 0.05 mg/ear daily topical from day 7, TPA-treated mice): 0.391 ± 0.0334 mm | Ear thickness (mm) ([3]; day 22, 0.075 mg/ear daily topical from day 7, TPA-treated mice): 0.395 ± 0.0438 mm | Histology of TPA-treated ears, in words ([3]; topical AC): both TPA-induced edema and epidermal hyperplasia were reduced by AC, as was angiogenesis | excess of the Vehicle group's liver weight/body weight ratio over the treated group [1]: 12% | area of liver invaded by metastatic cancer cells, in words ([1]; histology planimetry): markedly reduced the area of liver invaded by metastatic cancer cells | potency of AC relative to chloroquine for inactivating macrophages (THP-1 cells) [4]: approximately 100 fold | Tumor Weight (g) Mean ± SEM [2]: 0.49 ± 0.17 g | Body Weight (g) Mean ± SEM Initial [2]: 25.4 ± 0.5 g | Complete Regressions ([2]; day 35): 2
